Data as given in patent publication US20190353647A1, “NOVEL REAL-TIME MULTIPLEXED, MULTI-COLOR BIOLUMINESCENCE RESONANCE ENERGY TRANSFER ASSAY, APPARATUS, AND USES THEREOF” (Universite de Bordeaux, priority 2016, published 2019).

Target: T1, TRPV1 (Homo sapiens, UniProt Q8NER1)
T1 construct: expressed in transfected cells; host or cells: HEK293T
Assay: Intermolecular BRET assay, TRPV1-Luc/YFP-CaM in HEK293T cells
Type: cell-based
Details: TRPV1-Luc/YFP-CaM
Text: In order to generate the BRET constructs, super Yellow Fluorescent Protein 2 and Renilla Luciferase II were used to improve the brightness of the assay. They were referred as YFP and Luc for short in the rest of the manuscript. The cDNA of Luc and YFP were first cloned together using a three-piece ligation in the BamHI/XhoI site of pcDNA3.1(+) (Invitrogen, Carlsbad, Calif., USA), yielding two expression vectors pcDNA3.1 YFP-Luc where YFP was cloned in-fusion at the N-terminal of Luc, and pcDNA3.1 Luc-YFP where Luc was cloned in-fusion at the N-terminal of YFP. Both YFP and Luc were amplified by PCR from the pcDNA3-YFP-EPAC-Luc vector. Luc was cloned either at the N-terminal of YFP as a HindIII-EcoRI fragment (primers used: “Luc_HindIII_ATGN-term sense” and “Luc_no Stop_EcoRI_N-term antisense”) or at the COOH-terminal of YFP as an EcoRI-XhoI fragment (primer used: “Luc_EcoRI_ATG_C-term sense” and “Luc_XhoI_Stop_C-term antisense”). In parallel, YFP was cloned either at the N-terminal of Luc as a HindIII-EcoRI fragment (primers used: “YFP_HindIII_ATG_N-term sense” and “YFP_no Stop_EcoRI_N-term antisense”) or at the COOH-terminal of Luc as a EcoRI-XhoI fragment (primer used: “YFP_EcoRI_ATG_C-term sense” and “YFP_XhoI_Stop_C-term antisense”). The sequence joining Luc and YFP sequence encoded […] (SEQ ID NO: 18) as a linker, and contained an AgeI restriction site. The YFP-hTRPV1-Luc expression vector was obtained by subcloning the human TRPV1 cDNA from the pDONR201-hTRPV1 vector (Harvard Medical School PlasmID Repository, clone HsCD00081472) as an EcoRI PCR fragment in the EcoRI site of the vector pcDNA3.1 YFP-Luc (primer used: “hTRPV1_EcoRI_Fus_Sense” and “hTRPV1_EcoRI_Fus_antisense”). The hTRPV1-Luc expression vector was obtained by subcloning the cDNA of hTRPV1 as a HindIII-EcoRI fragment in place of the YFP in the HindIII-EcoRI site of the pcDNA3.1 YFP-Luc vector (primer used: “hTRPV1_HindIII_ATG_Sense” and “hTRPV1_EcoRI_Fus_antisense”). The Luc-hTRPV3 expression vector was obtained by subcloning the cDNA of hTRPV3 (Harvard Medical School PlasmID Repository, clone HsCD00341603) as a AgeI-XhoI fragment in place of the YFP in the AgeI-XhoI sites of the pcDNA3.1 Luc-YFP vector (primer used: “hTRPV3_AgeI_ATG_Sense” and “hTRPV3_Stop_XhoI_antisense”). The hTRPV4-Luc expression vector was obtained by subcloning the cDNA of hTRPV4 as a BamHI-AgeI fragment in place of the YFP in the BamHI-AgeI site of the pcDNA3.1 YFP-Luc vector (primer used: “hTRPV4_BamHI_ATG_Sense” and hTRPV4_AgeI_Fus_antisense”). In each case, the sequence joining the cDNA of interest and either Luc or YFP sequence encoded […] (SEQ ID NO: 18) as a linker.
The cDNA of mAmetrine (Plasmid #54660) and LssmOrange (Plasmid #37130) were obtained from AddGene plasmid repository. The cDNA of aquamarine, mAmetrine and LssmOrange were all subcloned as a HindIII-EcoRI fragment in place of the YFP in the HindIII-EcoRI site of the pcDNA3.1 YFP-Luc vector (primer used: “YFP_HindIII_ATG_N-term sense” and “YFP_no Stop_EcoRI_N-term antisense”) to yield pcDNA3.1 FP-Luc expression vectors (“FP” being any fluorescent protein between aquamarine, mAmetrine and LssmOrange). […] A similar strategy was used to obtain the FP-CaM expression vector using the pcDNA3.1 FP-Luc expression vector instead of the pcDNA3.1 YFP-Luc.
HEK293T cells were maintained in Dulbecco's modified Eagle's medium-high Glucose (DMEM) (D6429, Sigma) supplemented with 10% fetal bovine serum, 100 units mL-1 penicillin and streptomycin. Twenty-four hours before transfection, cells were seeded at a density of 500,000 cells in 6-well dishes. Transient transfections were performed using polyethylenimine (PEI, linear, Mr 25,000; catalogue number 23966 Polysciences, Inc., Warrington, Pa., USA) with a PEI:DNA ratio of 4:1. Usually, 0.1-0.25 μg of the donor constructions and 1.75-1.9 μg of the acceptors constructions were transfected for the BRET measurement.

T1 sequence (Q8NER1 whole entry): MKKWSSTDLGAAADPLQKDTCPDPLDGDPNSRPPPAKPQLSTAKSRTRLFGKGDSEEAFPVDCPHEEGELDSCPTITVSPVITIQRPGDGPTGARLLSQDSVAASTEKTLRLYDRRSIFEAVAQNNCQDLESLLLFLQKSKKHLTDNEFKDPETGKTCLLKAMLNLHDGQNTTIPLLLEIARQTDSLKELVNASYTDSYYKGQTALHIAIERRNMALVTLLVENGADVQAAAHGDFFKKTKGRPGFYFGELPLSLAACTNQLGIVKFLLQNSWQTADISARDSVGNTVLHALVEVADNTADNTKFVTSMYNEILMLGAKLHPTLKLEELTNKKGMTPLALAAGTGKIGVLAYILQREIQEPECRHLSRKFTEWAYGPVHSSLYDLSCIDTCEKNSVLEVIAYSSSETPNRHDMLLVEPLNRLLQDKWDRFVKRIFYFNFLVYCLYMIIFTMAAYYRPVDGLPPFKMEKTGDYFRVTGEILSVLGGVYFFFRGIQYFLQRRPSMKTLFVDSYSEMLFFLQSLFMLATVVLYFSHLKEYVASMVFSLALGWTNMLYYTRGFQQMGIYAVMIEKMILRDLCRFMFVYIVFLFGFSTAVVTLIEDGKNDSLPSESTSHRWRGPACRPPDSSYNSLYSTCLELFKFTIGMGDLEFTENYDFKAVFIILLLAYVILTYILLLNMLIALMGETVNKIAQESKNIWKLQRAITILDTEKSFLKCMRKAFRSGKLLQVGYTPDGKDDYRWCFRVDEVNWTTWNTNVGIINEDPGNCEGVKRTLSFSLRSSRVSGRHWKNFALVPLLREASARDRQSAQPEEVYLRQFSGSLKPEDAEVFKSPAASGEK

Effect on CAPS-induced BRET increase (intermolecular test)	Structure (SMILES)	Change of basal BRET signal
abolished	CC(=O)OCOC(=O)CN(CC(=O)OCOC(C)=O)c1ccccc1OCCOc1ccccc1N(CC(=O)OCOC(C)=O)CC(=O)OCOC(C)=O [BAPTA-AM]	severely diminished
–	C[C@H](CCC(=O)O)C[C@H](C)C[C@H](C)C(=O)/C=C(\O)[C@H](C)C[C@H](C)C/C=C/[C@@H](C)[C@@H](O)[C@@H](C)[C@@H](O)C[C@@H]1CC[C@@](C)([C@H]2CC[C@@](C)([C@@H](C)O)O2)O1 [ionomycin]	no effect
